From ChEMBL document CHEMBL3627717, “Multivalent LKγ-PNA oligomers bind to a human telomere DNA G-rich sequence to form quadruplexes” (Bioorg Med Chem Lett, 2015)

system: DNA; assay: Binding affinity to human truncated telomeric DNA1 assessed as melting temperature at 20 uM by UV melting curve analysis (reference value: 58.9 +/- 0.3 degC); format: nucleic-acid assay

Tm [°C]	Compound
59.1	CC(=O)NCCN(CC(=O)NC(CCCCN)CN(CC(=O)NC(CCCCN)CN(CC(=O)NC(CCCCN)CN(CC(=O)NCCN(CC(=O)NC(CCCCN(C)C)C(N)=O)C(=O)Cn1cc(C)c(=O)[nH]c1=O)C(=O)Cn1cnc2c(=O)[nH]c(N)nc21)C(=O)Cn1cnc2c(=O)[nH]c(N)nc21)C(=O)Cn1cnc2c(=O)[nH]c(N)nc21)C(=O)Cn1cc(C)c(=O)[nH]c1=O (centres undefined)
57.3	CC(=O)NCCN(CC(=O)NCCN(CC(=O)NCCN(CC(=O)NCCN(CC(=O)NCCN(CC(=O)NC(CCCCN(C)C)C(N)=O)C(=O)Cn1cc(C)c(=O)[nH]c1=O)C(=O)Cn1cnc2c(=O)[nH]c(N)nc21)C(=O)Cn1cnc2c(=O)[nH]c(N)nc21)C(=O)Cn1cnc2c(=O)[nH]c(N)nc21)C(=O)Cn1cc(C)c(=O)[nH]c1=O (centres undefined)
58.4	CC(=O)NCCN(CC(=O)NC(CCCCN)CN(CC(=O)NCCN(CC(=O)NC(CCCCN)CN(CC(=O)NCCN(CC(=O)NC(CCCCN(C)C)C(N)=O)C(=O)Cn1cc(C)c(=O)[nH]c1=O)C(=O)Cn1cnc2c(=O)[nH]c(N)nc21)C(=O)Cn1cnc2c(=O)[nH]c(N)nc21)C(=O)Cn1cnc2c(=O)[nH]c(N)nc21)C(=O)Cn1cc(C)c(=O)[nH]c1=O (centres undefined)
60.2	CC(=O)NCCN(CC(=O)NCCN(CC(=O)NC(CCCCN)CN(CC(=O)NCCN(CC(=O)NCCN(CC(=O)NC(CCCCN(C)C)C(N)=O)C(=O)Cn1cc(C)c(=O)[nH]c1=O)C(=O)Cn1cnc2c(=O)[nH]c(N)nc21)C(=O)Cn1cnc2c(=O)[nH]c(N)nc21)C(=O)Cn1cnc2c(=O)[nH]c(N)nc21)C(=O)Cn1cc(C)c(=O)[nH]c1=O (centres undefined)
